Where two headings read alike, the source gives them in different places.
Assays:
[1] = molecular target: T1, HCV polymerase 1A (Δ21 NS5B, H77) (Hepatitis C virus genotype 1a, UniProt P27958); test: biochemical; settings: IC50 1a
T1 construct: 20 to 50 nM Δ21 NS5B
Method in brief: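 Radiometric assay with Δ21 NS5B (H77): 20 μM CTP, 20 μM ATP, 1 μM ^3H-UTP, 5 nM template RNA, 2–4 h at room temperature. RNA precipitated with spermine, filter-captured and counted. IC50 from non-linear fit of retained cpm vs inhibitor concentration (tight-binding equation).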

[2] = molecular target: T2, HCV polymerase 1B (Δ21 NS5B, BK) (Hepatitis C virus genotype 1b, UniProt P26663); test: biochemical
T2 construct: 20 to 50 nM Δ21 NS5B
T2 sequence (P26663 2420-2989, stated change not applied): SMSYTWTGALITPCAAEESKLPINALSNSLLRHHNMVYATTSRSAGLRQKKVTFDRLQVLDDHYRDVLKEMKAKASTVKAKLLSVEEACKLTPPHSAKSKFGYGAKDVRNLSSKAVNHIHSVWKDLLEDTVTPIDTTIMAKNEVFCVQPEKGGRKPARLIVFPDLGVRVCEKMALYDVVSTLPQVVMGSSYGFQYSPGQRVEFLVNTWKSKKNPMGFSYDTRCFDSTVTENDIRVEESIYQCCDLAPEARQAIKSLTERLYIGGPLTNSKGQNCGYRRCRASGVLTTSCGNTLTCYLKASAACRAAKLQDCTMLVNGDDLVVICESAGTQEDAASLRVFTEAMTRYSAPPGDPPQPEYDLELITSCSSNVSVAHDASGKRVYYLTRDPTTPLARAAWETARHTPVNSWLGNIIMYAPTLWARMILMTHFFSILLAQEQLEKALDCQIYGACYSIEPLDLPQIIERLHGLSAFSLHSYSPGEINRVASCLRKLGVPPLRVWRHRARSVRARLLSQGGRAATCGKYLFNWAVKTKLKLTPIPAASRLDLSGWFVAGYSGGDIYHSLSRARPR
Method in brief: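 Δ21 NS5B (genotype 1b, BK […]) preincubated 15 min RT with inhibitor, 2 mM MnCl2, pH 7.4, 60–125 μM GTP; started with 20 μM CTP/ATP, 1 μM 3H-UTP, 5 nM template RNA, run 2–4 h RT. Spermine-precipitated RNA filter-captured, scintillation counted; IC50 from tight-binding (Morrison) fit.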

[3] = system: genotype 1a-H77 subgenomic replicon cell line; test: microbe, parasite or virus in culture; format: cell-based, HCV; settings: read-out: EC50 1a
[4] = system: genotype 1b-Con1 subgenomic replicon cell line; test: microbe, parasite or virus in culture; format: cell-based, HCV; settings: read-out: EC50 1b

T1 sequence (P27958 2421-2990, stated change not applied): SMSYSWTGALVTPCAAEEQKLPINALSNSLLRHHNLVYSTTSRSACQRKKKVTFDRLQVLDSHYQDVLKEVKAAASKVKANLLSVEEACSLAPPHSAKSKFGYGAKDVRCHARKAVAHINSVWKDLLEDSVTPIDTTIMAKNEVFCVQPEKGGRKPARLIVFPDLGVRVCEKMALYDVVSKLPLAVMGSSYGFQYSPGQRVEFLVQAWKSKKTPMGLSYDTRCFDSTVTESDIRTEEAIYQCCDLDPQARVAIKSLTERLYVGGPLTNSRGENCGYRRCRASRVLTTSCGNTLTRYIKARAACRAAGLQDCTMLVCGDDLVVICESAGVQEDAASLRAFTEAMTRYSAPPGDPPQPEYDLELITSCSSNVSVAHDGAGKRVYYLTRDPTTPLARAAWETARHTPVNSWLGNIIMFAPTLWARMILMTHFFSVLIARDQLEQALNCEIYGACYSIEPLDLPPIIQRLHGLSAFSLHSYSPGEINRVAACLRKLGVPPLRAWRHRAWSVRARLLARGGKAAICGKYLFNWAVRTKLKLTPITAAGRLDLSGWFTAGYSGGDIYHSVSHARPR

Compound | IC50 [1] | IC50 [2] | EC50 ([3]; Hepatitis C virus) | EC50 ([4]; Hepatitis C virus) | IC50 ([2]; read-out: IC50 1b, HCV polymerase 1b) | EC50 [3] | EC50 [4]
COCCS(=O)(=O)Nc1ccc(NC(=O)c2cc(N3CCC(=O)NC3=O)cc(C(C)(C)C)c2O)cc1 [IA-L3-1.8, 3-tert-butyl-5-(2,4-dioxotetrahydropyrimidin-1(2H)-yl)-2-hydroxy-N-(4-(2-methoxyethylsulfonamido)phenyl)benzamide] | 10 to 100 nM | 10 to 100 nM | > 1000 nM | 100 to 1000 nM | – | – | –
COc1c(NC(=O)c2ccccc2)cc(N2CCC(=O)NC2=O)cc1C(C)(C)C [IA-L4-1.8, N-(3-tert-butyl-5-(2,4-dioxotetrahydropyrimidin-1(2H)-yl)-2-methoxyphenyl)benzamide] | > 1000 nM | 100 to 1000 nM | > 1000 nM | 100 to 1000 nM | – | – | –
COc1c(/C=C\c2ccc(NS(C)(=O)=O)cc2)cc(N2CCC(=O)NC2=O)cc1C(C)(C)C [IA-L1-1.20, (Z)—N-(4-(3-tert-butyl-5-(2,4-dioxotetrahydropyrimidin-1(2H)-yl)-2-methoxystyryl)phenyl)methanesulfonamide] | < 10 nM | – | – | – | 10 to 100 nM | 10 to 100 nM | 10 to 100 nM
COc1c(NC(=O)c2ccc(NS(C)(=O)=O)cc2Cl)cc(N2CCC(=O)NC2=O)cc1C(C)(C)C [IA-L4-1.12, N-(3-tert-butyl-5-(2,4-dioxotetrahydropyrimidin-1(2H)-yl)-2-methoxyphenyl)-2-chloro-4-(methylsulfonamido)benzamide] | 10 to 100 nM | 10 to 100 nM | 100 to 1000 nM | 100 to 1000 nM | – | – | –
COc1c(C(=O)Nc2ccc(NS(=O)(=O)CC(F)(F)F)cc2)cc(N2CCC(=O)NC2=O)cc1C(C)(C)C [IA-L3-1.55, 3-tert-butyl-5-(2,4-dioxotetrahydropyrimidin-1(2H)-yl)-2-methoxy-N-(4-(2,2,2-trifluoro-ethylsulfonamido)phenyl)benzamide] | 100 to 1000 nM | 100 to 1000 nM | > 1000 nM | > 1000 nM | – | – | –
COc1c(-c2ccc(NS(C)(=O)=O)cc2)cc(-n2ccc(=O)[nH]c2=O)cc1C(C)(C)C [IB-L0-1.2, N-(3′-tert-butyl-5′-(2,4-dioxo-3,4-dihydropyrimidin-1(2H)-yl)-2′-methoxybiphenyl-4-yl)methanesulfonamide] | 100 to 1000 nM | 100 to 1000 nM | > 1000 nM | > 1000 nM | – | – | –
COc1c(-c2ccc3c(c2)CC[C@H]3CNS(C)(=O)=O)cc(-n2ccc(=O)[nH]c2=O)cc1C(C)(C)C (single isomer, unassigned) [IB-L0-2.15] | < 10 nM | 10 to 100 nM | 100 to 1000 nM | 10 to 100 nM | – | – | –
CCNC(=O)CN1C(=O)CCN(c2cc(C(=O)Nc3ccc(N(CC(=O)NCC)S(C)(=O)=O)cc3)c(OC)c(C(C)(C)C)c2)C1=O [IA-L3-1.115, 3-tert-butyl-5-(3-(2-(ethylamino)-2-oxoethyl)-2,4-dioxotetrahydropyrimidin-1(2H)-yl)-N-(4-(N-(2-(ethylamino)-2-oxoethyl)methylsulfonamido)phenyl)-2-methoxybenzamide] | > 1000 nM | > 1000 nM | > 1000 nM | > 1000 nM | – | – | –
CC(C)(C)c1cc(N2CCC(=O)NC2=O)cc(C(=O)Nc2ccc(NS(C)(=O)=O)cc2)c1O [IA-L3-1.6, 3-tert-butyl-5-(2,4-dioxotetrahydropyrimidin-1(2H)-yl)-2-hydroxy-N-(4-(methylsulfonamido)phenyl)benzamide] | 10 to 100 nM | < 10 nM | 100 to 1000 nM | 10 to 100 nM | – | – | –
COc1c(-c2ccsc2)cc(-n2ccc(=O)[nH]c2=O)cc1-c1ccc2c(c1)CC=C2CNS(C)(=O)=O [IB-L0-2.62, N-((6-(5-(2,4-dioxo-3,4-dihydropyrimidin-1(2H)-yl)-2-methoxy-3-(thiophen-3-yl)phenyl)-1H-inden-3-yl)methyl)methanesulfonamide] | 10 to 100 nM | 10 to 100 nM | 100 to 1000 nM | 10 to 100 nM | – | – | –
CCc1cc(NS(C)(=O)=O)ccc1C#Cc1cc(N2CCC(=O)NC2=O)cc(C(C)(C)C)c1OC [IA-L2-1.11, N-(4-((3-tert-butyl-5-(2,4-dioxotetrahydropyrimidin-1(2H)-yl)-2-methoxyphenyl)ethynyl)-3-ethylphenyl)methanesulfonamide] | < 10 nM | 10 to 100 nM | < 10 nM | < 10 nM | – | – | –
CC(C)(C)c1cc(N2CCC(=O)NC2=O)cc(C(=O)Nc2ccc(NS(=O)(=O)CC(F)(F)F)cc2)c1O [IA-L3-1.9, 3-tert-butyl-5-(2,4-dioxotetrahydropyrimidin-1(2H)-yl)-2-hydroxy-N-(4-(2,2,2-trifluoroethylsulfonamido)phenyl)benzamide] | 100 to 1000 nM | 10 to 100 nM | > 1000 nM | > 1000 nM | – | – | –
COc1c(C#Cc2ccc(NS(C)(=O)=O)c3ccccc23)cc(N2CCC(=O)NC2=O)cc1C(C)(C)C [IA-L2-2.1, N-(4-((3-tert-butyl-5-(2,4-dioxotetrahydropyrimidin-1(2H)-yl)-2-methoxyphenyl)ethynyl)-naphthalen-1-yl)methanesulfonamide] | 10 to 100 nM | 10 to 100 nM | 100 to 1000 nM | 100 to 1000 nM | – | – | –
CC(C)(C)c1cc(N2CCC(=O)NC2=O)cc(C(=O)Nc2ccccc2S(C)(=O)=O)c1O [IA-L3-1.20, 3-tert-butyl-5-(2,4-dioxotetrahydropyrimidin-1(2H)-yl)-2-hydroxy-N-(2-(methylsulfonyl)phenyl)benzamide] | > 1000 nM | 10 to 100 nM | > 1000 nM | > 1000 nM | – | – | –
COc1c(C(=O)Nc2ccc(N(C(C)=O)S(C)(=O)=O)cc2)cc(N2CCC(=O)NC2=O)cc1C(C)(C)C [IA-L3-1.69, N-[4-(acetyl-methanesulfonyl-amino)-phenyl]-3-tert-butyl-5-(2,4-dioxo-tetrahydro-pyrimidin-1-yl)-2-methoxy-benzamide] | 100 to 1000 nM | 100 to 1000 nM | 100 to 1000 nM | 10 to 100 nM | – | – | –
COc1c(-c2ccc(/C=N/NS(C)(=O)=O)c(F)c2)cc(N2CCC(=O)NC2=O)cc1C(C)(C)C [IA-L0-1.4, (E)-N′-((3′-tert-butyl-5′-(2,4-dioxotetrahydropyrimidin-1(2H)-yl)-3-fluoro-2′-methoxybiphenyl-4-yl)methylene)methanesulfonohydrazide] | 10 to 100 nM | 10 to 100 nM | 100 to 1000 nM | 10 to 100 nM | – | – | –
COc1c(C(=O)Nc2ccc(NS(C)(=O)=O)cc2)cc(-n2ccc(=O)[nH]c2=O)cc1C(C)(C)C [IB-L3-1.1, 3-tert-butyl-5-(2,4-dioxo-3,4-dihydropyrimidin-1(2H)-yl)-2-methoxy-N-(4-(methylsulfon amido)phenyl)benzamide] | 10 to 100 nM | 10 to 100 nM | 100 to 1000 nM | 10 to 100 nM | – | – | –
CCCC(=O)N(c1ccc(NC(=O)c2cc(N3CCC(=O)NC3=O)cc(C(C)(C)C)c2OC)cc1)S(C)(=O)=O [IA-L3-1.71, 3-tert-butyl-5-(2,4-dioxotetrahydropyrimidin-1(2H)-yl)-2-methoxy-N-(4-(N-(methylsulfonyl)butyramido)phenyl)benzamide] | 100 to 1000 nM | > 1000 nM | 100 to 1000 nM | 10 to 100 nM | – | – | –
CC(C)(C)c1cc(-n2ccc(=O)[nH]c2=O)cc(C(=O)Nc2ccc(NS(C)(=O)=O)cc2)c1O [IB-L3-1.2, 3-tert-butyl-5-(2,4-dioxo-3,4-dihydropyrimidin-1(2H)-yl)-2-hydroxy-N-(4-(methylsulfonamide)phenyl)benzamide] | 10 to 100 nM | < 10 nM | 100 to 1000 nM | 10 to 100 nM | – | – | –

— patent publication US8415351B2 (priority 2007, dated 2013)
